Laboratory results published in publication PMC7615185, “Structural basis for ion selectivity in potassium-selective channelrhodopsins” (Cell, 2023).

Biological target: T1, HcKCR1 (Hyphochytrium catenoides, UniProt A0ABF7PQA2, A110C)
T1 construct: M1-S265; 7TM rhodopsin domain; Sf9, HA signal/FLAG and eGFP-His10-Rho1D4 tags cleaved by 3C, MSP1E3D1/SoyPC nanodisc; residues 6-260 modelled; homotrimer; eYFP fusion in HEK293 for patch clamp
T1 sequence (A0ABF7PQA2 1-265 A110C): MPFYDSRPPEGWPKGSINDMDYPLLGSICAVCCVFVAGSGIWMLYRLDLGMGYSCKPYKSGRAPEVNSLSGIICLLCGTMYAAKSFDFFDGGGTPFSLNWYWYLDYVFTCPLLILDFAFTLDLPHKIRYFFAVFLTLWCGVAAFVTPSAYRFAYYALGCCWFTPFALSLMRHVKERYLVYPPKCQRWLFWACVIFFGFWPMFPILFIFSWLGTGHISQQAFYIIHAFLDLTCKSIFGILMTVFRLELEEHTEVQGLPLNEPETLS
Assay: cryo-EM structure, retinal isomer by HPLC
Assay type: binding
Conditions: dark state, nanodisc, pH 7.5; covalent Schiff base to K233

Compound: CC1=C(/C=C/C(C)=C/C=C/C(C)=C/C=O)C(C)(C)CCC1 [all-trans-retinal]
- cryo-EM structure, retinal isomer by HPLC: accurate modeling of most residues of both HcKCRs
